Target: T1, mKv1.3 (Mus musculus, UniProt P16390)
T1 construct: expressed in transfected cells; host or cells: L929
Assay: Selectivity patch clamp, L929 cells expressing mKv1.3
Assay type: cell-based
Protocol: L929 cells stably expressing mKv1.1, rKv1.2, mKv1.3, and mKv3.1 and MEL cells stably expressing hKv1.5 have been previously described (Grissmer 1994, Mol. Pharmacol. 45: 1227). hKv1.4 and rKv4.2 were stably expressed in LTK (HK1–7). Channel expression was induced 8–12 h before the electrophysiological experiments by 4 μM dexamethasone (Sigma). HEK-293 cells stably expressing the skeletal muscle sodium channel hSkM1 (SCN4A) were generated in the laboratory of Dr. F. Lehmann-Horn. HEK-293 cells stably expressing hSloα were obtained from Dr. Andrew Tinker (Center for Clinical Pharmacology, University College London). L929, MEL, LTK and HEK cells were maintained in DMEM containing 10% heat-inactivated fetal calf serum (Summit Biotechnology, Fort Collins, Colo.) and 250 μg/ml G418 (Life Technologies, Inc.). Rat basophilic leukemia (RBL) cells were maintained in Eagle's minimum essential medium with 2 mM L-glutamine and 10% fetal calf serum. CHO cell were maintained in F12K media (ATCC). Human leukemic Jurkat E6–1 cells were cultured in RPMI 1640 supplemented with 10% fetal calf serum and 1 mM L-glutamine. T84 cells were maintained in a 1:1 mixture of Ham's F12 medium and DMEM with 2.5 mM L-glutamine and 10% fetal calf serum.
Recordings from the Jurkat SKCa channel were made in K^+ aspartate Ringer (Na^+ was replaced by K^+) with the same internal pipette solution. […]

T1 sequence (P16390 whole entry): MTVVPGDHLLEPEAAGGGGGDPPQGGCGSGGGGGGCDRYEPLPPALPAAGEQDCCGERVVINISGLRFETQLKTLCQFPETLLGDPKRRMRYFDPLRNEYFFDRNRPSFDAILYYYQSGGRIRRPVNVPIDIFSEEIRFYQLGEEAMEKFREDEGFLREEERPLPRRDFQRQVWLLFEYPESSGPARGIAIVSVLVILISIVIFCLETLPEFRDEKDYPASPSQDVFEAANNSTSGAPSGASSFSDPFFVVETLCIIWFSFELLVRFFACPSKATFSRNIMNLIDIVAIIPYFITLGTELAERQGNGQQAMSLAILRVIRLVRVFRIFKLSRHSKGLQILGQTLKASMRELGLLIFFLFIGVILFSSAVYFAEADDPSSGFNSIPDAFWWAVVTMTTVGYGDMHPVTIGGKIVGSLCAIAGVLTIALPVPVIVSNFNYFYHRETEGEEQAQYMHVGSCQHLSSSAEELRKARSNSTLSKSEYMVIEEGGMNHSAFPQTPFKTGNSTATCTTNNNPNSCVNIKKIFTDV

For `Clc1ccccc1C(c1ccccc1)(c1ccccc1)n1cccn1` [Compound T34, 1-[(2-Chlorophenyl)diphenylmethyl]-1H-pyrazole], the Kd was 5 ± 0.35 µM.
